Read-outs that look alike come from different tables or passages of the source.
How the values were obtained:
[1] = logP determination by HPLC on a reversed-phase column (C18), EEC Directive 79/831 Annex V.A8; type: physicochemical; conditions: for logP^a): HPLC-MS method a), Table I-T3
[2] = test system: Boophilus microplus; assay: Boophilus microplus - injection test; type: in vivo; conditions: application rate 20 μg/animal; injected into engorged adult female ticks; laying of fertile eggs, after 7 days
Protocol: Boophilus microplus—Injection Test
(§1) Solvent: dimethyl sulphoxide
To produce an appropriate active ingredient formulation, 10 mg of active ingredient are mixed with 0.5 ml of solvent and the concentrate is diluted with solvent to the desired concentration.
1 μl of the active ingredient solution is injected into the abdomen of 5 engorged adult female cattle ticks (Boophilus microplus). The animals are transferred into dishes and kept in a climate-controlled room.
Efficacy is assessed after 7 days by laying of fertile eggs. Eggs which are not visibly fertile are stored in a climate-controlled cabinet until the larvae hatch after about 42 days. An efficacy of 100% means that none of the ticks has laid any fertile eggs; 0% means that all the eggs are fertile.

[3] = test system: Ctenocephalides felis; assay: Ctenocephalides felis - oral test; type: in vivo; conditions: application rate 100 ppm in citrated cattle blood; adult fleas; kill after 2 days
Protocol: Ctenocephalides felis—Oral Test
as §1
For the purpose of producing an appropriate active ingredient formulation, 10 mg of active ingredient are mixed with 0.5 ml of dimethyl sulphoxide. Dilution with citrated cattle blood gives the desired concentration.
About 20 unfed adult cat fleas (Ctenocephalides felis) are placed into a chamber which is closed at the top and bottom with gauze. A metal cylinder whose bottom end is closed with parafilm is placed onto the chamber. The cylinder contains the blood/active ingredient preparation, which can be imbibed by the fleas through the parafilm membrane.
After 2 days, the kill in % is determined. 100% means that all of the fleas have been killed; 0% means that none of the fleas have been killed.

[4] = test system: Lucilia cuprina; assay: Lucilia cuprina test; type: in vivo; conditions: application rate 100 ppm, L1 larvae in minced horsemeat, kill after 2 days
Protocol: as §1
(§2) To produce an appropriate active ingredient formulation, 10 mg of active ingredient are mixed with 0.5 ml of dimethyl sulphoxide, and the concentrate is diluted with water to the desired concentration.
About 20 L1 larvae of the Australian sheep blowfly (Lucilia cuprina) are transferred into a test vessel containing minced horsemeat and the active ingredient preparation of the desired concentration.
After 2 days, the kill in % is determined. 100% means that all the larvae have been killed; 0% means that none of the larvae have been killed.

[5] = test system: Musca domestica; assay: Musca domestica test; type: in vivo; conditions: adult houseflies, kill after 2 days
Protocol: as §1, §2
Vessels containing a sponge treated with sugar solution and the active ingredient formulation of the desired concentration are populated with 10 adult houseflies (Musca domestica).
After 2 days, the kill in % is determined. 100% means that all of the flies have been killed; 0% means that none of the flies have been killed.

[6] = HPLC-MS, reversed-phase column (C18)

Row | chromatographic logP ([1]; reversed-phase HPLC column (C18), HPLC, reversed-phase C18, acetonitrile/water with formic acid, 55° C., read-out: logP) | chromatographic logP ([1]; reversed-phase HPLC column (C18), HPLC-MS method a), reversed-phase column (C18); read-out: logP^a)) | chromatographic logP ([1]; reversed-phase HPLC column (C18), HPLC-MS, reversed-phase column (C18), read-out: log P) | Compound | logP^a) [1] | efficacy [2] [%] | efficacy [3] [%] | efficacy [4] [%] | efficacy ([5]; application rate 100 ppm) [%] | efficacy ([5]; application rate 4 ppm) [%] | pest or weed control at 100 ppm ([4]; Lucilia cuprina, 48 h, read-out: efficacy) [%] | log P [1, 6]
1 | – | – | – | Cc1cc(C(F)(C(F)(F)F)C(F)(F)F)cc(C)c1-n1cc(-c2ccc(Cl)c(C(=O)NCC(F)(F)F)c2)cn1 [I-T3-2] | 4.7 | 100 | 100 | 100 | 100 | – | – | –
2 | – | – | – | Cc1cc(C(F)(C(F)(F)F)C(F)(F)F)cc(C)c1-n1cc(-c2ccc(Cl)c(C(=O)NC3CSC3)c2)cn1 [I-T3-4] | 4.7 | 100 | 100 | 100 | 100 | – | – | –
3 | – | – | – | Cc1cc(C(F)(C(F)(F)F)C(F)(F)F)cc(C)c1-n1cc(-c2ccc(Cl)c(C(=O)NC3(C(F)(F)F)CC3)c2)cn1 [I-T3-5] | 4.6 | 100 | 100 | 100 | 100 | – | – | –
4 | – | – | – | Cc1cc(C(F)(C(F)(F)F)C(F)(F)F)cc(C)c1-n1cc(-c2ccc(Cl)c(C(=O)NCC(=O)NCC(F)(F)F)c2)cn1 [I-T3-6] | 4.1 | 100 | – | 100 | – | – | – | –
5 | – | – | – | Cc1cc(C(F)(C(F)(F)F)C(F)(F)F)cc(C)c1-n1cc(-c2cncc(C(=O)NC3(C#N)CC3)c2)cn1 [I-T3-8] | 3.4 | 100 | 100 | 100 | 100 | – | – | –
6 | – | – | – | Cc1cc(C(F)(C(F)(F)F)C(F)(F)F)cc(C)c1-n1cc(-c2cccc(C(=O)NC3(C#N)CC3)c2F)cn1 [I-T3-10] | 4.2 | 100 | 100 | 100 | – | – | – | –
7 | – | – | – | Cc1cc(C(F)(C(F)(F)F)C(F)(F)F)cc(C)c1-n1cc(-c2cc(C(=O)NC3(C#N)CC3)c(F)cc2Cl)cn1 [I-T3-12] | 4.7 | 100 | 100 | 80 | – | – | – | –
8 | – | – | – | Cc1cc(C(F)(C(F)(F)F)C(F)(F)F)cc(C)c1-n1cc(-c2cc(C(=O)NC3CC3)ccc2F)cn1 [I-T3-13] | 4.5 | 100 | 80 | – | – | – | – | –
9 | – | – | – | Cc1cc(C(F)(C(F)(F)F)C(F)(F)F)cc(C)c1-n1cc(-c2cc(C(=O)NC3CC3)cc(C(F)(F)F)c2)cn1 [I-T3-15] | 4.9 | 100 | 90 | 100 | – | – | – | –
10 | – | – | – | Cc1cc(C(F)(C(F)(F)F)C(F)(F)F)cc(C)c1-n1cc(-c2cc(C(=O)NC3(C#N)CC3)cc(C(F)(F)F)c2)cn1 [I-T3-18] | 4.7 | 100 | 100 | 100 | – | – | – | –
11 | – | – | – | Cc1cc(C(F)(C(F)(F)F)C(F)(F)F)cc(C)c1-n1cc(-c2cc(C(=O)NC3(C#N)CC3)ccc2F)cn1 [I-T3-19] | 4.3 | 100 | 95 | – | – | – | – | –
12 | – | – | – | O=C(NCC(F)(F)F)c1cc(-c2cnn(-c3ccc(C(F)(C(F)(F)F)C(F)(F)F)cc3Cl)c2)ccc1Cl [I-T3-32] | 4.7 | 100 | 100 | 100 | – | – | – | –
13 | – | – | – | O=C(NCCC(F)(F)F)c1cc(-c2cnn(-c3ccc(C(F)(C(F)(F)F)C(F)(F)F)cc3Cl)c2)ccc1Cl [I-T3-33] | 4.7 | 100 | 100 | 100 | – | – | – | –
14 | – | – | – | N#CC1(NC(=O)c2cc(-c3cnn(-c4ccc(C(F)(C(F)(F)F)C(F)(F)F)cc4OC(F)(F)F)c3)ccc2Cl)CC1 [I-T3-34] | 4.6 | 100 | 100 | 100 | 100 | – | – | –
15 | – | – | – | O=C(NC1CC1)c1cc(-c2cnn(-c3ccc(C(F)(C(F)(F)F)C(F)(F)F)cc3OC(F)(F)F)c2)ccc1Cl [I-T3-35] | 4.7 | 100 | 100 | 100 | – | 80 | – | –
16 | – | – | – | O=C(NCC(F)(F)F)c1cc(-c2cnn(-c3ccc(C(F)(C(F)(F)F)C(F)(F)F)cc3OC(F)(F)F)c2)ccc1Cl [I-T3-36] | 5.0 | 100 | 80 | 100 | – | – | – | –
17 | – | – | – | O=C(NC1CSC1)c1cc(-c2cnn(-c3ccc(C(F)(C(F)(F)F)C(F)(F)F)cc3OC(F)(F)F)c2)ccc1Cl [I-T3-37] | 4.9 | 100 | 90 | 100 | – | – | – | –

Row | chromatographic logP ([1]; reversed-phase HPLC column (C18), HPLC, reversed-phase C18, acetonitrile/water with formic acid, 55° C., read-out: logP) | chromatographic logP ([1]; reversed-phase HPLC column (C18), HPLC-MS method a), reversed-phase column (C18); read-out: logP^a)) | chromatographic logP ([1]; reversed-phase HPLC column (C18), HPLC-MS, reversed-phase column (C18), read-out: log P) | Compound | logP^a) [1] | efficacy [2] [%] | efficacy [3] [%] | efficacy [4] [%] | efficacy ([5]; application rate 100 ppm) [%] | efficacy ([5]; application rate 4 ppm) [%] | pest or weed control at 100 ppm ([4]; Lucilia cuprina, 48 h, read-out: efficacy) [%] | log P [1, 6]
18 | – | – | – | CCc1cc(C(F)(C(F)(F)F)C(F)(F)F)ccc1-n1cc(-c2ccc(Cl)c(C(=O)NCC(F)(F)F)c2)cn1 [I-T3-40] | 4.9 | 100 | 100 | 100 | – | – | – | –
19 | – | – | – | CCc1cc(C(F)(C(F)(F)F)C(F)(F)F)ccc1-n1cc(-c2ccc(Cl)c(C(=O)NC3CSC3)c2)cn1 [I-T3-41] | 4.9 | 100 | 95 | 90 | – | – | – | –
20 | – | – | – | CCc1cc(C(F)(C(F)(F)F)C(F)(F)F)cc(C)c1-n1cc(-c2ccc(Cl)c(C(=O)NCC(F)(F)F)c2)cn1 [I-T3-45] | 5.0 | 100 | 95 | 100 | – | – | – | –
21 | – | – | – | N#CC1(NC(=O)c2cc(-c3cnn(-c4c(F)cc(C(F)(F)F)cc4F)c3)ccc2Cl)CC1 [I-T3-49] | 3.2 | 100 | 100 | 100 | – | – | – | –
22 | – | – | – | N#CC1(NC(=O)c2cc(-c3cnn(-c4ncc(C(F)(F)F)cc4Cl)c3)ccc2Cl)CC1 [I-T3-59] | 3.1 | 100 | 100 | 100 | – | – | – | –
23 | – | – | – | O=C(NC1CC1)c1cc(-c2cnn(-c3ncc(C(F)(F)F)cc3Cl)c2)ccc1Cl [I-T3-60] | 3.2 | 100 | 90 | 90 | – | – | – | –
24 | – | – | – | CCc1cc(C(F)(C(F)(F)F)C(F)(F)F)cc(C)c1-n1cc(-c2cccc(C(=O)NC3(C#N)CC3)c2F)cn1 [I-T3-69] | 4.5 | 100 | 100 | 95 | – | – | – | –
25 | – | – | – | CCc1cc(C(F)(C(F)(F)F)C(F)(F)F)cc(C)c1-n1cc(-c2cccc(C(=O)NC3CC3)c2F)cn1 [I-T3-70] | 4.7 | 100 | 95 | 100 | – | – | – | –
26 | – | – | – | CCc1cc(C(F)(C(F)(F)F)C(F)(F)F)ccc1-n1cc(-c2cccc(C(=O)NC3(C#N)CC3)c2F)cn1 [I-T3-74] | 4.5 | 100 | – | 90 | – | – | – | –
27 | – | – | – | CCc1cc(C(F)(C(F)(F)F)C(F)(F)F)ccc1-n1cc(-c2cccc(C(=O)NC3CC3)c2F)cn1 [I-T3-75] | 4.7 | 90 | – | 80 | – | – | – | –
28 | – | – | – | CCc1cc(C(F)(C(F)(F)F)C(F)(F)F)ccc1-n1cc(-c2cncc(C(=O)NC3(C#N)CC3)c2)cn1 [I-T3-78] | 3.8 | 100 | 100 | 100 | – | – | – | –
29 | – | – | – | CCc1cc(C(F)(F)C(F)(F)F)cc(C)c1-n1cc(-c2ccc(Cl)c(C(=O)NCC(F)(F)F)c2)cn1 [I-T3-82] | 4.0 | 100 | 95 | 100 | – | – | – | –
30 | – | – | – | CCc1cc(C(F)(F)C(F)(F)F)cc(C)c1-n1cc(-c2ccc(Cl)c(C(=O)NC3CSC3)c2)cn1 [I-T3-83] | 4.6 | 100 | 95 | 100 | – | – | – | –
31 | 4.5 | 4.5 | 4.5 | Cc1cc(C(F)(C(F)(F)F)C(F)(F)F)cc(C)c1-n1cc(-c2ncc(Cl)c(C(=O)NC3CC3)n2)cn1 [I-T3-121, 5-chloro-N-cyclopropyl-2-[1-[2,6-dimethyl-4-[1,2,2,2-tetrafluoro-1-(trifluoromethyl)ethyl]phenyl]pyrazol-4-yl]pyrimidine-4-carboxamide] | – | – | – | – | – | – | 80 | –
32 | – | – | – | Cc1cc(C(F)(C(F)(F)F)C(F)(F)F)cc(C)c1-n1cc(-c2cnc(C3CC3)c(C(=O)NC3CC3)c2)cn1 [I-T3-140] | – | 100 | 100 | 100 | – | – | – | 4.2
33 | – | – | – | Cn1ccc(NC(=O)c2cc(-c3cnn(-c4c(Cl)cc(C(F)(F)F)cc4Cl)c3)cnc2Cl)n1 [I-T3-146] | – | 100 | 100 | 90 | – | – | – | 2.8
